The inhibition is the relative decrease from the control value, in per cent.

Experimental findings from US20230058189A1, “QUINOLIN-4-ONE AND 4(1H)-CINNOLINONE COMPOUNDS AND METHODS OF USING SAME” (Frequency Therapeutics, Inc., priority 2019, published 2023) are described below.

Experiment [1] concerns Lgr5+ cells (cochlear stem cells). In words: Lgr5+ assay: expansion of Lgr5-positive cochlear cells in 3D culture. It is filed as cell-based, mouse. From the text:
“Stem Cell Proliferation Assay” as used herein is an assay to determine the capacity for agent(s) to induce the creation of stem cells from a starting cell population. In an exemplary Stem Cell Proliferation Assay, the number of cells for an initial cell population is harvested from a Lgr5-GFP mouse such as a B6.129P2-Lgr5tm1(cre/ERT2)Cle/J mouse (also known as Lgr5-EGFP-IRES-creERT2 or Lgr5-GFP mouse, Jackson Lab Stock No: 008875) between the age of 3 to 7 days, by isolating the organ of Corti sensory epithelium and dissociating the epithelium into single cells. Approximately 5000 cells are entrapped in 40 μl of culture substrate (for example, Matrigel (Corning, Growth Factor Reduced)) and placed at the center of wells in a 24-well plate with 500 μl of an appropriate culture media, growth factors and agent being tested. Appropriate culture media and growth factors include Advanced DMEM/F12 with media supplements (1×N2, 1×B27, 2 mM Glutamax, 10 mM HEPES, 1 mM N-acetylcysteine, and 100 U/ml penicillin/100 μg/ml streptomycin) and growth factors (50 ng/ml EGF, 50 ng/ml bFGF, and 50 ng/ml IGF-1) as well as the agent(s) being assessed are added into each well. Cells are cultured for 10 days in a standard cell culture incubator at 37° C. and 5% CO2, with media change every 2 days. The number of Lgr5^+ cells is quantified by counting the number of cells identified as Lgr5+ in an in vitro Lgr5 activity assay (i.e., an assay mearing in vitro Lgr5 activity). The fraction of cells that are Lgr5^+ is quantified by dividing the number of cells identified as Lgr5^+ in a cell population by the total number of cells present in the cell population. The average Lgr5^+ activity of a population is quantified by measuring the average mRNA expression level of Lgr5 of the population normalized using suitable and unregulated references or housekeeping genes (e.g., Hprt). The number of hair cells in a population may be measured by staining with hair cell marker (e.g., MyosinVIIa), or using an endogenous reporter of hair cell genes (e.g., Pou4f3-GFP, Atoh1-nGFP) and analyzing using flow cytometry. The fraction of cells that are hair cells is quantified by dividing the number of cells identified as hair cells in a cell population by the total number of cells present in the cell population. Lgr5 activity can be measured by qPCR.
The compounds of the present disclosure were used in Lgr5-EGFP-IRES-Cre-ER mice (Barker et al., 2007) to analyze the effects of small molecules on cochlear stem cell expansion.
Isolation of stem cells from the inner ear: All animal studies were conducted under an approved institutional protocol according to National Institutes of Health guidelines. For experiments with neonatal mice (postnatal days 1-3), the cochleae were dissected in Hank's Balanced Salt Solution (HBSS) and the organs of Corti were separated from the stria vascularis and the modiolus. The organs of Corti were then treated with Cell Recovery Solution (Corning) for 1 hour to separate cochlear epithelium from the underlying mesenchyme. Epithelia were then collected and treated with TrypLE (Life Technologies) for 15-20 minutes at 37° C. Single cells obtained by mechanical trituration were filtered (40 μm) and suspended in Matrigel® (Corning) for 3D culture.
Cells were cultured in a 1:1 mixture of DMEM and F12, supplemented with Glutamax (GIBCO), N2, B27 (Invitrogen), EGF (50 ng/ml; Chemicon), bFGF (50 ng/ml; Chemicon), IGF1 (50 ng/ml; Chemicon) and the composition provided herein. Medium was changed every other day.
Lgr5-positive cells were quantified after 10 days (D10) in culture in multiple conditions. Cell colonies were dissociated into single cells using TrypLE (Gibco). The cells were then stained with propidium iodide (P1) and were analyzed using a flow cytometer for Lgr5-GFP expression. The number of GFP-positive cells and the percentage of GFP-positive cells were quantified. […]

The target of another experiment is GSK3α (Homo sapiens, UniProt P49840). In words: GSK3α in vitro enzymatic assay (Kinase-Glo Max luminescence). The following applies: recombinant human GSK3, 10 μM ATP; approximate values; read-out: Potency GSK3alpha. Type of experiment: biochemical. The protocol: (§1) Enzymatic activities of compounds of the present disclosure can be tested using recombinant human GSK3 in an in vitro enzymatic assay to determine the ability of the compounds of the present disclosure to inhibit GSK3α and GSK3β.
GSK3α, sequence (P49840 whole entry): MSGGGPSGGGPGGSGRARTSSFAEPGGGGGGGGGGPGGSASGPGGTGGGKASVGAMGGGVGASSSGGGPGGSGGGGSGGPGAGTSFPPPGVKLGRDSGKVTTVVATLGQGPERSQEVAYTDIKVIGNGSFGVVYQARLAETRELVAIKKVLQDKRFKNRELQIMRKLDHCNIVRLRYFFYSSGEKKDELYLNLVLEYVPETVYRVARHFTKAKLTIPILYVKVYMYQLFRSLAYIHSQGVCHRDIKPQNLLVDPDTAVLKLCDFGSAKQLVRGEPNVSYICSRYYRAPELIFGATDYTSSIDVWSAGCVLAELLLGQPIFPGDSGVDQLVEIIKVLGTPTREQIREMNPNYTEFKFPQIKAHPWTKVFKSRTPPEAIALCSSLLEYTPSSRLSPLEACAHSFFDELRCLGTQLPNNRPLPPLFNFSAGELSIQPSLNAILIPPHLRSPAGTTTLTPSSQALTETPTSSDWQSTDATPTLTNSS
(§2) The assay was performed using Kinase-Glo® Max luminescence kinase assay kit (Promega). The assay measures kinase activity by quantitating the amount of ATP remaining in solution following a kinase reaction. The luminescent signal from the assay is correlated with the amount of ATP present and is inversely correlated with the amount of kinase activity.
(§3) To perform the assay, compounds were diluted in 10% DMSO and 5 μl of the dilution was added to a 50 μl reaction so that the final concentration of DMSO was 1% in all of reactions. The enzymatic reactions were conducted at 30° C. for 40 minutes. The 50 μl reaction mixture contained 40 mM Tris, pH 7.4, 10 mM MgCl2, 0.1 mg/ml BSA, 2 mM DTT, 0.1 mg/ml GSK tide substrate, 10 uM ATP and GSK3. After the enzymatic reaction, 50 μl of Kinase-Glo Max Luminescence kinase assay solution (Promega) was added to each reaction and plates were incubated for 15 minutes at room temperature. Luminescence signal was measured using a BioTek Synergy 2 microplate reader.
(§4) Kinase activity assays were performed in duplicate at each concentration. The luminescence data were analyzed using the computer software, GraphPad Prism. The difference between luminescence intensities in the absence of Kinase (Lut) and in the presence of Kinase (Luc) was defined as 100% activity (Lut-Luc). Using luminescence signal (Lu) in the presence of the compound, percent activity was calculated as: % activity={(Lut-Lu)/(Lut-Luc)}×100%, where Lu=the luminescence intensity in the presence of the compound (all percent activities below zero were shown zero in the table).
(§5) The values of percent activity versus a series of compound concentrations were then plotted using non-linear regression analysis of Sigmoidal dose-response curve generated with the equation Y=B+(T−B)/1+10((LogEC50−X)×Hill Slope), where Y=percent activity, B=minimum percent activity, T=maximum percent activity, X=logarithm of compound and Hill Slope=slope factor or Hill coefficient. The ICs, value was determined by the concentration causing a half-maximal percent activity.

In another experiment the target is LSD-1 (Homo sapiens, UniProt O60341). Put plainly: LSD-1 A-screen (AlphaScreen) demethylase enzymatic assay. It is filed as biochemical. The settings on record: approximate values; for inhibition at 50 µM: read-out: Potency LSD-1 % Inhibition at 50 μM. The protocol:
(§6) Enzymatic activities of compounds of the present disclosure can be tested with recombinant human LSD using an in vitro enzymatic assay to determine the ability of the compounds of the present disclosure to inhibit LSD-1 and LSD2. Examples of the assay are provided below.
(§7) All of the enzymatic reactions were conducted in duplicate at room temperature for 60 minutes in a 10 μL mixture containing assay buffer, histone H3 peptide substrate, demthylase enzyme, and the test compound. These 10 μL reactions were carried out in wells of a 384-well Optiplate (PerkinElmer). The dilution of the compounds was first performed in 100% DMSO with the highest concentration at 5 mM Each intermediate compound dilution (in 100% DMSO) was then directly diluted 30× fold into assay buffer for 3.3× concentration (DMSO). […] From this intermediate step, 3 μL of compound was added to 4 μL of demethylase enzyme dilution was incubated for 30 minutes at room temperature. After this incubation, 3 μL of peptide substrate was added. The final DMSO concentration was 1%. After enzymatic reactions, 5 μL of anti-Mouse or anti-Rabbit Acceptor beads (PerkinElmer, diluted 1:500 with 1× detection buffer) and […] (BPS, diluted 1:800 with 1× detection buffer) were added to the reaction mix. After brief shaking, the plate was incubated for 30 minutes. Finally, 10 μL of AlphaScreen™ Streptavidin-conjugated donor beads (Perkin, diluted 1:125 with 1× detection buffer) were added. After 30 minutes, the samples were measured in an AlphaScreen microplate reader (EnSpire Alpha 2390 Multilabel Reader, Perkin Elmer).
(§8) Enzyme activity assays were performed in duplicates at each concentration. The A-screen intensity data were analyzed and compared. In the absence of the compound, the intensity in each data set was defined as 100% (Ce) activity. In the absence of enzyme, the intensity in each data set was defined as 0% (C0) activity. The percent activity in the presence of each compound was calculated according to the following equation: % activity=(C−C0)/(Ce−C0), where C=the intensity in the presence of the compound.
(§9) The value of percent activity versus a series of compound concentrations was then plotted using non-linear regression analysis of Sigmoidal dose-response curve generated with the equation Y=B+(T−B)/1+10((LogEC50−X)×Hill Slope), where Y=percent activity, B=minimum percent activity, T=maximum percent activity, X=logarithm of compound and Hill Slope=slope factor or Hill coefficient. The IC50 value was determined by the concentration causing a half-maximal percent activity.
(Alpha assays give light when donor and acceptor beads are brought close together.)

The target of another experiment is GSK3β (Homo sapiens, UniProt P49841). In words: GSK3β in vitro enzymatic assay (Kinase-Glo Max luminescence). Type of experiment: biochemical. The settings on record: recombinant human GSK3, 10 μM ATP; approximate values; read-out: Potency GSK3beta. The protocol: as §1, §2, §3, §4, §5
GSK3β, sequence (P49841 whole entry): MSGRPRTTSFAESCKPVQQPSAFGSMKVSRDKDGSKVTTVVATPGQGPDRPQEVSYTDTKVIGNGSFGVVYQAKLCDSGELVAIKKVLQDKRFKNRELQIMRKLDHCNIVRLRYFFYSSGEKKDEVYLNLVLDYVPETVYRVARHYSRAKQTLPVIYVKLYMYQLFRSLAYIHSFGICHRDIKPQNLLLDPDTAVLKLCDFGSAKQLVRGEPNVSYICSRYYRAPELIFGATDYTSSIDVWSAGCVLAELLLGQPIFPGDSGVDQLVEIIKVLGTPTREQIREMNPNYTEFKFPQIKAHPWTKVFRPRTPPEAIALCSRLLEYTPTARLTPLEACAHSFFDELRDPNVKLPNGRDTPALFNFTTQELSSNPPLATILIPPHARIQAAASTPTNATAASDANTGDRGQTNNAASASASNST
On the technique in general: Kinase-Glo measures the ATP left after a reaction by luminescence.

In the next experiment the target is T1, LSD2 (Homo sapiens, UniProt Q8NB78).
T1 sequence (Q8NB78 1-822): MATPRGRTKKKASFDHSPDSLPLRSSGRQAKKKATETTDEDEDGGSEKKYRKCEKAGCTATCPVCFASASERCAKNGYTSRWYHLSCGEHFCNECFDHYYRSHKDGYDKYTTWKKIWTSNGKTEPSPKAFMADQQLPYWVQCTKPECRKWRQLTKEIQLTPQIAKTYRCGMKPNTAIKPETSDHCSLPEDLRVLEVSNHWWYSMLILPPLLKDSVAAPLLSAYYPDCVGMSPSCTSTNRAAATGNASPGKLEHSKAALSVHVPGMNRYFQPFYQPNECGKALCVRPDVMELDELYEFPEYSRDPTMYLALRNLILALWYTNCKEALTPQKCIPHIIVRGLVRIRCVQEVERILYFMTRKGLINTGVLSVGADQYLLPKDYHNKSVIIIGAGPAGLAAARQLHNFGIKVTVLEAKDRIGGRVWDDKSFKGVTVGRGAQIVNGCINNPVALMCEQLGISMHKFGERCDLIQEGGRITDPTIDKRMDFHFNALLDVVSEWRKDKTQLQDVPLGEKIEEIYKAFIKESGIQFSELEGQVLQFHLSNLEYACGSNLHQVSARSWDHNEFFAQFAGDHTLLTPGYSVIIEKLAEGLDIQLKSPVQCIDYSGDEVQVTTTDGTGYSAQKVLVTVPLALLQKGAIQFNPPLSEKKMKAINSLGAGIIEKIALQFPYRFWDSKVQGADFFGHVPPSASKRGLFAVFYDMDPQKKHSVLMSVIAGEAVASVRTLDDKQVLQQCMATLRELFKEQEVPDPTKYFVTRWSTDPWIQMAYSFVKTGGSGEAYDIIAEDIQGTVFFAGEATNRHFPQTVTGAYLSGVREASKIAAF
Put plainly: LSD2 A-screen (AlphaScreen) demethylase enzymatic assay. It is filed as biochemical. The following applies: 50 μM compound, approximate values; for inhibition at 50 µM: read-out: Potency LSD-2 % Inhibition at 50 μM. On the procedure:
as §6, §7, §8, §9

The mark [2] stands for this setting: in a background of growth factors, compared to CHIR-99021 and its combinations (figures).

Molecules are shown by their SMILES.

For the compound `CCn1cc(C(=O)O)c(=O)c2c(N)c(F)c(N[C@@H]3C[C@H]3c3ccccc3)cc21` (relative stereo) [Compound I-20], in experiment [1] (effective concentration for Lgr5+ expansion, 10 days culture with EGF, bFGF, IGF1, approximate values), the “Potency (Lgr5+ activity)” value is 1.1 µM. Besides, in experiment [1] (setting [2]), the “Lgr5 GFP+ progenitor cell proliferation (Lgr5 positive cell count)” value is reported as “generate Lgr5 GFP+ progenitor cell proliferation” and the “enrichment of Lgr5 GFP+ cochlear progenitor cells (percent of Lgr5 positive cells)” value is “generates enrichment of Lgr5 GFP+ cochlear progenitor cells”.
As for `Nc1c(F)c(NCCN[C@@H]2C[C@H]2c2ccccc2)cc2c1c(=O)c(C(=O)O)cn2CCO` (relative stereo) [Compound I-90], the IC50 on GSK3α was found to be 0.99 µM; on LSD-1 (read-out: Potency LSD-1 IC50), 8.5 µM; on GSK3β, 1.6 µM. The inhibition at 50 µM at LSD2 is 8%.
For the compound `CCn1cc(C(=O)O)c(=O)c2c(N)c(F)c(N[C@@H]3C[C@H]3c3ccccc3)cc21` (single isomer, unassigned) [Compound I-63], the IC50 on GSK3α and at GSK3β was greater than 10 µM each time. Further, the “Potency LSD-1 % Inhibition at 50 μM” value at LSD-1 (50 μM compound, 50 µM) is 26% @ 50 μM. Further, the “Potency LSD-2 % Inhibition at 50 μM” value at LSD2 (50 µM) is listed as 6%.
Regarding `CCn1cc(C(=O)O)c(=O)c2c(N)c(F)c(OCCc3ccccc3)cc21` [Compound I-52], the IC50 on GSK3α and on GSK3β was greater than 10 µM in each case. The inhibition at 50 µM came out at 0% on LSD-1 (50 μM compound) and 3% on LSD2.
As for `CCn1cc(C(=O)O)c(=O)c2c(F)cc(NCc3ccccc3)cc21` [Compound I-55], the IC50 on GSK3α and on GSK3β was greater than 10 µM throughout.
As for `CCn1cc(C(=O)O)c(=O)c2c(N)cc(NCCc3ccccc3)cc21` [Compound I-56], the IC50 on GSK3α and on GSK3β was greater than 10 µM in each case. Also, the inhibition at 50 µM on LSD-1 (50 μM compound) came out at 56%; at LSD2, 28%.
As for `CCn1cc(C(=O)O)c(=O)c2c(N)cc(NC3CCCCC3)cc21` [Compound I-58], the IC50 at GSK3α and at GSK3β was greater than 10 µM throughout. Also, the inhibition at 50 µM stood at 77% at LSD-1 (50 μM compound) and 7% on LSD2.
In the case of `CCn1cc(C(=O)O)c(=O)c2c(N)cc(NC3CCCCC3)c(F)c21` [Compound I-64], the IC50 at GSK3α and on GSK3β was greater than 10 µM throughout. In addition, the inhibition at 50 µM on LSD-1 (50 μM compound) was 72%; on LSD2, 2%.
